The values that follow come from PubChem BioAssay AID248 (DTP/NCI, 2004).

This experiment relates to L1210 leukemia ip in BDF1 mice, survival T/C. Nature of the experiment: NCI In Vivo Anticancer Drug Screen. Data for tumor model L1210 Leukemia (intraperitoneal) in B6D2F1 (BDF1) mice. The conditions noted are these: endpoint: mean survival time, higher = longer survival. Put shortly: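 Mice bearing the transplanted tumor received compound or vehicle. Survival of the treated group was divided by that of the vehicle-treated control group to give the ratio.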

Setting [1] is: dose: 50.0 mg/kg/injection, schedule: Q01DX001 (ip), vehicle: carboxymethylcellulose (CMC).
Where [2] appears, read: dose: 75.0 mg/kg/injection, schedule: Q01DX001 (ip), vehicle: carboxymethylcellulose (CMC).
Setting [3] is: dose: 100.0 mg/kg/injection, schedule: Q01DX001 (ip), vehicle: carboxymethylcellulose (CMC).
[4] abbreviates: dose: 200.0 mg/kg/injection, schedule: Q01DX001 (ip), vehicle: carboxymethylcellulose (CMC).
Where [5] appears, read: dose: 100.0 mg/kg/injection, schedule: Q01DX009 (ip), vehicle: saline.
[6] abbreviates: dose: 100.0 mg/kg/injection, schedule: Q04DX003 (ip), vehicle: saline.
Setting [7] is: dose: 200.0 mg/kg/injection, schedule: Q01DX009 (ip), vehicle: saline.
The mark [8] stands for this setting: dose: 200.0 mg/kg/injection, schedule: Q04DX003 (ip), vehicle: saline.
Where [9] appears, read: dose: 400.0 mg/kg/injection, schedule: Q04DX003 (ip), vehicle: saline.
[10] abbreviates: dose: 100.0 mg/kg/injection, schedule: Q04DX003 (ip), vehicle: Klucel (hydroxypropylcellulose) (HPC).
[11] abbreviates: dose: 200.0 mg/kg/injection, schedule: Q04DX003 (ip), vehicle: Klucel (hydroxypropylcellulose) (HPC).
Where [12] appears, read: dose: 400.0 mg/kg/injection, schedule: Q04DX003 (ip), vehicle: Klucel (hydroxypropylcellulose) (HPC).
[13] abbreviates: dose: 50.0 mg/kg/injection, schedule: Q01DX009 (ip), vehicle: saline.
The mark [14] stands for this setting: dose: 100.0 mg/kg/injection, schedule: Q01DX001 (ip), vehicle: Klucel (hydroxypropylcellulose) (HPC).
[15] abbreviates: dose: 100.0 mg/kg/injection, schedule: Q01DX009 (ip), vehicle: Klucel (hydroxypropylcellulose) (HPC).
The mark [16] stands for this setting: dose: 200.0 mg/kg/injection, schedule: Q01DX001 (ip), vehicle: Klucel (hydroxypropylcellulose) (HPC).
The mark [17] stands for this setting: dose: 200.0 mg/kg/injection, schedule: Q01DX009 (ip), vehicle: Klucel (hydroxypropylcellulose) (HPC).
[18] abbreviates: dose: 400.0 mg/kg/injection, schedule: Q01DX001 (ip), vehicle: Klucel (hydroxypropylcellulose) (HPC).
The mark [19] stands for this setting: dose: 400.0 mg/kg/injection, schedule: Q01DX009 (ip), vehicle: Klucel (hydroxypropylcellulose) (HPC).

Where “and” joins values, the source holds several entries; their conditions need not be identical. Equal entries are not always repeated. Toxic doses and inconclusive results are not listed. Peptide text beside a SMILES is read from it.

On to `Cc1ccc(NC(=O)N(CCCl)N=O)cc1`, for which the T/C runs as follows: (dose: 0.5 mg/kg/injection, schedule: Q01DX015 (ip), vehicle: carboxymethylcellulose (CMC)) 103 % of control; (dose: 1.0 mg/kg/injection, schedule: Q01DX015 (ip), vehicle: carboxymethylcellulose (CMC)) 107 % of control; (dose: 5.2 mg/kg/injection, schedule: Q01DX015 (ip), vehicle: carboxymethylcellulose (CMC)) 169 % of control; (dose: 9.0 mg/kg/injection, schedule: Q01DX015 (ip), vehicle: carboxymethylcellulose (CMC)) 165 % of control; (dose: 15.0 mg/kg/injection, schedule: Q01DX015 (ip), vehicle: carboxymethylcellulose (CMC)) 206 % of control; (dose: 22.0 mg/kg/injection, schedule: Q01DX001 (ip), vehicle: carboxymethylcellulose (CMC)) 161 % of control. Further, the T/C is 152 % of control (dose: 25.0 mg/kg/injection, schedule: Q01DX015 (ip), vehicle: carboxymethylcellulose (CMC)); 152 % of control (dose: 33.0 mg/kg/injection, schedule: Q01DX001 (ip), vehicle: carboxymethylcellulose (CMC)); 171 % of control and 197 % of control under setting [1]; 118 % of control under setting [2]; 86 % of control under setting [3].
For the compound `COC1=C(NC(C)c2ccccc2)C(=O)C(OC)=C(NC(C)c2ccccc2)C1=O` (configuration not stated), the T/C is, setting by setting: under setting [1], 96 % of control; under setting [4], 89 % of control.
For the compound `N=C(N)CCN`, the T/C is, setting by setting: (dose: 100.0 mg/kg/injection, schedule: Q01DX001 (ip), vehicle: saline) 98 % of control; (dose: 200.0 mg/kg/injection, schedule: Q01DX001 (ip), vehicle: saline) 102 % of control.
Consider `C=CC(C)(O)CCC1C(=C)C(O)CC2C(C)(C)CCCC12C` (configuration not stated), for which the T/C is, setting by setting: under setting [5], 100 % of control; under setting [6], 105 % of control; under setting [7], 100 % of control; under setting [8], 95 % of control; (dose: 400.0 mg/kg/injection, schedule: Q01DX009 (ip), vehicle: saline) 94 % of control; under setting [9], 90 % of control.
Consider `CCC(=O)c1ccc(N2CCOCC2)cc1`, for which the T/C reads like this: (dose: 50.0 mg/kg/injection, schedule: Q04DX003 (ip), vehicle: Klucel (hydroxypropylcellulose) (HPC)) 97 % of control; (dose: 100.0 mg/kg/injection, schedule: Q01DX001 (ip), vehicle: other) 107 % of control; under setting [10], 101 % of control; (dose: 200.0 mg/kg/injection, schedule: Q01DX001 (ip), vehicle: other) 107 % of control; under setting [11], 108 % of control; (dose: 400.0 mg/kg/injection, schedule: Q01DX001 (ip), vehicle: other) 107 % of control.
Take `CCOC(=O)c1ccc(NC(=O)N(CCCl)N=O)cc1`: the T/C (dose: 9.0 mg/kg/injection, schedule: Q01DX001 (ip), vehicle: carboxymethylcellulose (CMC)) was 215 % of control and the T/C (dose: 18.7 mg/kg/injection, schedule: Q01DX001 (ip), vehicle: carboxymethylcellulose (CMC)) was 157 % of control.
Take `O=S(=O)(F)c1ccc(-c2cc(Cl)c3c(Br)cc(Br)cc3n2)cc1`: the T/C reads like this: under setting [10], 100 % of control; under setting [11], 94 % of control; under setting [12], 102 % of control.
Regarding `CC(O)C(NC(=O)C(N)CCCN=C(N)N)C(=O)NC(Cc1ccccc1)C(=O)O` (stereo not drawn) (H-Arg-Thr-Phe-OH; configuration not given here), the T/C reads like this: (dose: 18.75 mg/kg/injection, schedule: Q04DX002 (ip), vehicle: saline with Tween-80) 101 % of control; (dose: 37.5 mg/kg/injection, schedule: Q04DX002 (ip), vehicle: saline with Tween-80) 97 % of control; (dose: 75.0 mg/kg/injection, schedule: Q04DX002 (ip), vehicle: saline with Tween-80) 93 % of control; (dose: 150.0 mg/kg/injection, schedule: Q04DX002 (ip), vehicle: saline with Tween-80) 97 % of control.
In the case of `CN(N)P(=O)(c1ccccc1)N(C)N`, the T/C was 103 % of control (dose: 25.0 mg/kg/injection, schedule: Q01DX009 (ip), vehicle: saline); 101 % of control (dose: 25.0 mg/kg/injection, schedule: Q04DX003 (ip), vehicle: saline); 100 % of control under setting [13]; 98 % of control (dose: 50.0 mg/kg/injection, schedule: Q04DX003 (ip), vehicle: saline); 104 % of control and 105 % of control under setting [6].
Turning to `OCC1=CC(O)C2C=COC(C3OC(CO)C(O)C(O)C3O)C12` (configuration not stated), the T/C was 96 % of control under setting [13]; 96 % of control under setting [5]; 96 % of control under setting [6]; 95 % of control under setting [7]; 100 % of control under setting [8]; 100 % of control under setting [9].
`COc1ccc(/C=C(\C#N)c2cccc3ccccc23)cc1`: the T/C reads like this: under setting [10], 98 % of control; under setting [11], 105 % of control; under setting [12], 90 % of control.
As for `CC(C)=Cc1cc(C)ccc1OC(=O)c1ccc([N+](=O)[O-])cc1`, the T/C under setting [14] was 102 % of control; the T/C under setting [15] is 97 % of control; the T/C under setting [16] is 91 % of control; the T/C under setting [17] was 101 % of control; the T/C under setting [18] was 103 % of control; the T/C under setting [19] was 104 % of control.
In the case of `CCC(CC)NCC(C)OC(=O)c1ccc([N+](=O)[O-])cc1` (configuration not stated), the T/C is 96 % of control under setting [2]; 105 % of control (dose: 150.0 mg/kg/injection, schedule: Q01DX001 (ip), vehicle: carboxymethylcellulose (CMC)); 97 % of control (dose: 300.0 mg/kg/injection, schedule: Q01DX001 (ip), vehicle: carboxymethylcellulose (CMC)).
As for `Cc1cccc(NC(=O)NC(C)C)c1C`, the T/C under setting [15] was 109 % of control; the T/C under setting [10] was 102 % of control; the T/C under setting [17] is 109 % of control; the T/C under setting [11] was 96 % of control; the T/C under setting [19] was 102 % of control; the T/C under setting [12] was 98 % of control.
With `CCOC(=O)c1[nH]c(-c2ccccc2)c(C=O)c1-c1ccccc1`, the T/C was 100 % of control under setting [14], 100 % of control under setting [16] and 100 % of control under setting [18].
For `Ic1cccc2cc3cccc[n+]3cc12`, the T/C runs as follows: (dose: 9.9 mg/kg/injection, schedule: Q01DX Z (ip), vehicle: carboxymethylcellulose (CMC)) 102 % of control; (dose: 14.6 mg/kg/injection, schedule: Q01DX Z (ip), vehicle: carboxymethylcellulose (CMC)) 103 % of control; (dose: 22.0 mg/kg/injection, schedule: Q01DX Z (ip), vehicle: carboxymethylcellulose (CMC)) 91 % of control.
Regarding `CCCCCCC(=O)N(CCCCC)CCCCC`, the T/C is, setting by setting: under setting [3], 98 % of control; (dose: 100.0 mg/kg/injection, schedule: Q01DX009 (ip), vehicle: carboxymethylcellulose (CMC)) 96 % of control and 97 % of control; (dose: 100.0 mg/kg/injection, schedule: Q04DX002 (ip), vehicle: carboxymethylcellulose (CMC)) 100 % of control and 102 % of control; (dose: 100.0 mg/kg/injection, schedule: Q04DX003 (ip), vehicle: carboxymethylcellulose (CMC)) 93 % of control; under setting [4], 94 % of control; (dose: 200.0 mg/kg/injection, schedule: Q01DX009 (ip), vehicle: carboxymethylcellulose (CMC)) 96 % of control and 105 % of control. The T/C (dose: 200.0 mg/kg/injection, schedule: Q04DX002 (ip), vehicle: carboxymethylcellulose (CMC)) is 98 % of control and 100 % of control; the T/C (dose: 200.0 mg/kg/injection, schedule: Q04DX003 (ip), vehicle: carboxymethylcellulose (CMC)) was 95 % of control; the T/C (dose: 400.0 mg/kg/injection, schedule: Q01DX001 (ip), vehicle: carboxymethylcellulose (CMC)) is 104 % of control; the T/C (dose: 400.0 mg/kg/injection, schedule: Q04DX002 (ip), vehicle: carboxymethylcellulose (CMC)) is 98 % of control and 103 % of control; the T/C (dose: 400.0 mg/kg/injection, schedule: Q04DX003 (ip), vehicle: carboxymethylcellulose (CMC)) is 97 % of control.
